Where two headings read alike, the source gives them in different places. Each block holds one molecule with its values, some of them ahead of it.
Columns and labels:
Meloidogyne incognita = Meloidogyne incognita test (MELGIN); type: in vivo; conditions: 20 ppm; lettuce; after 14 days
Protocol: Meloidogyne incognita Test (MELGIN) Solvent: 125.0 parts by weight of acetone To produce a suitable active ingredient formulation, 1 part by weight of active ingredient is mixed with the stated amount of solvent and the concentrate is diluted with water to the desired concentration. Vessels are filled with sand, active ingredient solution, an egg/larvae suspension of the southern root-knot nematode (Meloidogyne incognita) and lettuce seeds. The lettuce seeds germinate and the plants develop. The galls develop on the roots. After 14 days, the nematicidal efficacy in % is determined by the formation of galls. 100% means that no galls were found; 0% means that the number of galls on the treated plants corresponds to the untreated control.

[1] = Determination of log P values by HPLC (reversed-phase C18); type: physicochemical; conditions: for chromatographic logP: reversed-phase C18 HPLC column
Protocol: 1) Description of Method for Determination of the Log P Values ([…]) The log P values given in the table were determined in accordance with EEC Directive 79/831 Annex V.A8 by HPLC (High Performance Liquid Chromatography) using a reversed-phase column (C 18). Temperature: 55° C. […] Gradient: from 10% eluent A/90% eluent B to 95% eluent A/5% eluent B in 4.25 min. Calibration was effected with unbranched alkan-2-ones (having 3 to 16 carbon atoms) with known log P values (log P values determined on the basis of the retention times by linear interpolation between two successive alkanones). The lambda max values were determined in the maxima of the chromatographic signals using the UV spectra from 200 nm to 400 nm.

[2] = HPLC, reversed-phase C18, 55° C., final compounds table
[3] = compounds of formula (IIa-1), R3 hydrogen
[4] = N-[1-aryl-1H-1,2,4-triazol-3-yl]benzamides, formula (1-9)

- log P neutral [1, 2]: 2.06
Compound: O=C(Nc1ncn(-c2c(F)cccc2C(F)(F)F)n1)c1ccccc1Cl [Compound I-1-27]
- nematicidal efficacy (formation of galls) (Meloidogyne incognita): 90%

- log P neutral [1, 2]: 2.55
Compound: CCc1cccc(Cl)c1-n1cnc(NC(=O)c2ccccc2C(F)(F)F)n1 [Compound I-1-42]
- nematicidal efficacy (formation of galls) (Meloidogyne incognita): 90%

- log P neutral [1, 2]: 2.20
Compound: O=C(Nc1ncn(-c2ccccc2I)n1)c1ccccc1C(F)(F)F [Compound I-1-75]
- nematicidal efficacy (formation of galls) (Meloidogyne incognita): 90%

- log P neutral [1, 2]: 2.06
Compound: O=C(Nc1ncn(-c2ccccc2F)n1)c1ccccc1C(F)(F)F [Compound I-1-2]

- log P neutral [1, 2]: 2.58
Compound: O=C(Nc1ncn(-c2ccc(Cl)cc2Cl)n1)c1ccccc1C(F)(F)F [Compound I-1-53]

- log P neutral [1, 2]: 2.04
Compound: Cc1cccc(C)c1-n1cnc(NC(=O)c2ccccc2Cl)n1 [Compound I-1-47]

- log P neutral [1, 2]: 2.10
Compound: O=C(Nc1ncn(-c2ccccc2Cl)n1)c1ccccc1C(F)(F)F [Compound I-1-3]

- log P neutral [1, 2]: 2.02
Compound: O=C(Nc1ncn(-c2c(F)cccc2I)n1)c1ccccc1Cl [Compound I-1-84]

- log P neutral [1, 2]: 2.04
Compound: Cc1cccc(Cl)c1-n1cnc(NC(=O)c2ccccc2Cl)n1 [Compound I-1-41]

- log P neutral [1, 2]: 2.26
Compound: Cc1cccc(C)c1-n1cnc(NC(=O)c2ccccc2C(F)(F)F)n1 [Compound I-1-48]

Further lines, the molecule ahead of its results:

Compound: O=C(Nc1ncn(-c2c(F)cccc2Br)n1)c1ccccc1I [Compound I-1-32]
- nematicidal efficacy (formation of galls) (Meloidogyne incognita): 100%
- log P neutral [1, 2]: 2.08

Compound: O=C(Nc1ncn(-c2c(F)c(F)cc(F)c2F)n1)c1ccccc1C(F)(F)F [Compound I-1-93]
- nematicidal efficacy (formation of galls) (Meloidogyne incognita): 100%
- log P neutral [1, 2]: 2.23

Compound: O=C(Nc1ncn(-c2c(F)cccc2Br)n1)c1ccccc1Cl [Compound I-1-31]
- nematicidal efficacy (formation of galls) (Meloidogyne incognita): 100%
- log P neutral [1, 2]: 1.95

Compound: O=C(Nc1ncn(-c2c(F)cccc2F)n1)c1cc(F)ccc1C(F)(F)F [Compound I-1-19]
- nematicidal efficacy (formation of galls) (Meloidogyne incognita): 100%
- log P neutral [1, 2]: 2.09

Compound: O=C(Nc1ncn(-c2ncc(F)cc2F)n1)c1ccccc1C(F)(F)F [Compound I-1-89, N-[1-(3,5-Difluoropyridin-2-yl)-1H-1,2,4-triazol-3-yl]-2-(trifluoromethyl)benzamide]
- nematicidal efficacy (formation of galls) (Meloidogyne incognita): 100%
- chromatographic logP ([1]; pH 3.4, HPLC-MS, preparation examples, read-out: log P): 1.76
- chromatographic logP ([1]; HPLC, reversed-phase C18, 55° C., final compounds table, read-out: log P neutral): 1.76

Compound: Nc1ncn(-c2c(F)cccc2Cl)n1 [IIa-1 R1=Cl R2m=6-F]
- logP (neutral) [1, 3]: 0.86

Compound: O=C(Nc1ncn(-c2c(Cl)cccc2Cl)n1)c1ccccc1 [1-9 R1=Cl R2m=6-Cl]
- logP (neutral) [1, 4]: 1.8

Compound: Nc1ncn(-c2c(F)cccc2Br)n1 [1-(2-Bromo-6-fluorophenyl)-1H-1,2,4-triazol-3-amine]
- chromatographic logP ([1]; HPLC-MS, preparation examples, read-out: log P (neutral)): 0.92

Compound: O=C(Nc1ncn(-c2c(F)cccc2F)n1)c1cccnc1Cl [Compound I-1-23]
- log P neutral [1, 2]: 1.24

Compound: O=C(Nc1ncn(-c2c(F)cccc2F)n1)c1ccccc1OC(F)(F)F [Compound I-1-17]
- log P neutral [1, 2]: 2.14

Compound: Nc1ncn(-c2ccccc2C(F)(F)F)n1 [IIa-1 R1=CF3 R2m=—]
- logP (neutral) [1, 3]: 1.16

Compound: Nc1ncn(-c2ccccc2OC(F)(F)F)n1 [IIa-1 R1=OCF3 R2m=—]
- logP (neutral) [1, 3]: 1.44

Compound: O=C(Nc1ncn(-c2c(F)cc(F)cc2F)n1)c1ccccc1 [1-9 R1=F R2m=4,6-F2]
- logP (neutral) [1, 4]: 1.71

Compound: O=C(Nc1ncn(-c2cc(Cl)ccc2Cl)n1)c1ccccc1 [1-9 R1=Cl R2m=5-Cl]
- logP (neutral) [1, 4]: 2.17

Compound: O=C(Nc1ncn(-c2c(Br)cc(F)cc2Br)n1)c1ccccc1 [1-9 R1=Br R2m=6-Br-4-F]
- logP (neutral) [1, 4]: 2.14

Compound: O=C(Nc1ncn(-c2c(Br)cccc2Br)n1)c1ccccc1 [1-9 R1=Br R2m=6-Br]
- logP (neutral) [1, 4]: 2.00

Compound: Nc1ncn(-c2ccccc2Br)n1 [IIa-1 R1=Br R2m=—]
- logP (neutral) [1, 3]: 1.03

Compound: Nc1ncn(-c2ccccc2I)n1 [IIa-1 R1=I R2m=—]
- logP (neutral) [1, 3]: 1.13

Compound: Cc1cccc(F)c1-n1cnc(NC(=O)c2ccccc2I)n1 [Compound I-1-39]
- log P neutral [1, 2]: 2.13

Compound: O=C(Nc1ncn(-c2ccccc2F)n1)c1ccccc1 [1-9 R1=F R2m=—]
- logP (neutral) [1, 4]: 1.69
